How the values were obtained:
in vitro [1] = settings: human, microsomes, pH 7.4
in vitro [2] = settings: rat, microsomes, pH 7.4
in vitro [3] = settings: mouse, microsomes, pH 7.4
hERG = hERG (Homo sapiens, UniProt Q12809); assay: HERG safety study (whole cell recordings, CHO cells); settings: CHO cells stably expressing hERG channels, pH 7.4
[4] = tested on: fasted Sprague-Dawley rats; assay: Acute feeding study; format: in vivo; settings: Table 3 feeding data
Description: Male, Sprague-Dawley rats (90-120 g) served as subjects for these studies. Rats were fasted for a period of 16 hrs (water was always available). After the fasting period, test compounds were administered either intraperitoneally (ip) or orally (po). Immediately following compound administration, the rats were returned to their home cage. Following 30 min after compound administration, the rats were removed from their home cages and placed individually into clean cages with a pre-measured amount of food. Food weights were obtained (to the nearest 0.1 g) at various time points. Food consumption was monitored for a period of up to 2 hrs (i.e., 2.5 hr after test compound administration).

native CB1 receptors = native CB1 receptors (Rattus norvegicus, UniProt P20272); assay: CB1 receptor rat binding assay ([3H]SR141716A, rat brain membranes); settings: rat brain membranes, [3H]SR141716A; for Ki: read-out: Binding rat pKi (converted)
human CB1 receptor = human CB1 receptor (Homo sapiens, UniProt P21554); assay: CB1 receptor human binding assay ([3H]SR141716A, transfected HEK-293 T membranes); settings: human CB1, HEK-293 T membranes; for Ki: read-out: Binding Human pKi (converted)
Chain of human CB1 receptor (P21554 whole entry): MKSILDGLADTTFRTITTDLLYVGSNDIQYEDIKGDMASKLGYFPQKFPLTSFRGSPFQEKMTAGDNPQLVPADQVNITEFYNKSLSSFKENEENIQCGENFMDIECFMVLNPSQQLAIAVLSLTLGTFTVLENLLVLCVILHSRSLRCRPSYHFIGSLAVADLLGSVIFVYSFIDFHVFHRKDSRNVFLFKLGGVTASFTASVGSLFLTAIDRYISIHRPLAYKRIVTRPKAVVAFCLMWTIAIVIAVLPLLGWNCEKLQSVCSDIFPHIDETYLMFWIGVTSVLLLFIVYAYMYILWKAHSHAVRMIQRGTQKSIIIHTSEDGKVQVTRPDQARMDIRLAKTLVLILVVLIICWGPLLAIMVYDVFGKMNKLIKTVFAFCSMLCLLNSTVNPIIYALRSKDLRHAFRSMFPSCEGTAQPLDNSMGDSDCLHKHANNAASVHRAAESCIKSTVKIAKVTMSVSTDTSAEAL

Chain of hERG (Q12809 whole entry): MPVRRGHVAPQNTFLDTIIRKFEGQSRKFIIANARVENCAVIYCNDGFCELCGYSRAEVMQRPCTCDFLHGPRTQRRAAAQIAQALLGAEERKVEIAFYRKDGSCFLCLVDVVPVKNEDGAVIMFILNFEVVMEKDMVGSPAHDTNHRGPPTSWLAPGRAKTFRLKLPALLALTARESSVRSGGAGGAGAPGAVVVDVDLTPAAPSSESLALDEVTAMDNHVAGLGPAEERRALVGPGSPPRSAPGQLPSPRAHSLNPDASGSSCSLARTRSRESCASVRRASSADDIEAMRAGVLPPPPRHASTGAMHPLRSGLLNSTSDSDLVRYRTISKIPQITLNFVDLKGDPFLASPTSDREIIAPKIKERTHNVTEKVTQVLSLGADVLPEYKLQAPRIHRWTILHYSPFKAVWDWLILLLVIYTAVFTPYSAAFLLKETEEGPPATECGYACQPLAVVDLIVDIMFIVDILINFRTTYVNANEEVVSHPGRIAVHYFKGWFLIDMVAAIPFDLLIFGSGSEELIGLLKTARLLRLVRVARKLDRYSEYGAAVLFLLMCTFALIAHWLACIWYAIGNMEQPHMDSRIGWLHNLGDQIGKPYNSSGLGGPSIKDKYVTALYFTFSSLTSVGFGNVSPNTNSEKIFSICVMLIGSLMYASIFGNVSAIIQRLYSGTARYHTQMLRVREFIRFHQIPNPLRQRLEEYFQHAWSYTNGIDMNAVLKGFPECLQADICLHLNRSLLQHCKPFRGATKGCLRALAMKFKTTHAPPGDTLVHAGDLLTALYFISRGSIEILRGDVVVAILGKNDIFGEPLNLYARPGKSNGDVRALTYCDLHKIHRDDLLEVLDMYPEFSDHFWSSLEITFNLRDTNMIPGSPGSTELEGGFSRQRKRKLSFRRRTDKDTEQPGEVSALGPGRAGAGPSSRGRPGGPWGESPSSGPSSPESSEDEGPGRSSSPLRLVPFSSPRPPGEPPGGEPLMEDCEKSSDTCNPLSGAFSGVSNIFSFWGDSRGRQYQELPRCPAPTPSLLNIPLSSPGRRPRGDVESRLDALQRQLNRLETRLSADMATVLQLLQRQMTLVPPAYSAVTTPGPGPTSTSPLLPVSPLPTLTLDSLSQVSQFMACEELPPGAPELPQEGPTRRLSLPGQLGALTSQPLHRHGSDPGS
Chain of native CB1 receptors (P20272 whole entry): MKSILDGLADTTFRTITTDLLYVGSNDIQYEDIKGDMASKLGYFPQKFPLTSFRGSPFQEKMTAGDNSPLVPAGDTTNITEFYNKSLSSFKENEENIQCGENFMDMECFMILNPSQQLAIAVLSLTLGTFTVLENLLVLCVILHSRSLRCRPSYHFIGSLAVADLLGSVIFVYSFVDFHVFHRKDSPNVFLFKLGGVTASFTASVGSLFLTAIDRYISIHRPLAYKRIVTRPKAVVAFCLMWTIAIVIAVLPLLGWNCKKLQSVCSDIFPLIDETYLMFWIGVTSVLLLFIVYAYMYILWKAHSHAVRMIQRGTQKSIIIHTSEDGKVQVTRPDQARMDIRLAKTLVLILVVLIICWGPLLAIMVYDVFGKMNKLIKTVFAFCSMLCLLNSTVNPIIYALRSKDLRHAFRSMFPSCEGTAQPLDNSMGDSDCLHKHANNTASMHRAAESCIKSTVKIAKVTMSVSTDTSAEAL

SMILES	microsomal CLint at 1 μM (in vitro [1]) [µL/min/mg]	microsomal CLint at 1 μM (in vitro [2]) [µL/min/mg]	inhibition at 1 µM (hERG) [%]	further results
C[C@@H]1CCC[C@H](C)N1NC(=O)c1ccc2c(c1)N=C(c1cccc(Cl)c1)c1ccccc1S2 [drawing 1720]	390	254	–	microsomal CLint at 1 μM (in vitro [3]): 684 µL/min/mg
O=C(NN1CCCCC1)c1ccc2c(c1)N=C(c1ccc(F)cc1)c1ccccc1S2 [drawing 1685]	61	96	–	–
CC(C)CCNC(=O)c1ccc2c(c1)N=C(c1cccc(F)c1)c1ccccc1S2 [drawing 1713]	46	163	–	microsomal CLint at 1 μM (in vitro [3]): 202 µL/min/mg
O=C(NCc1cccc(Cl)c1)c1ccc2c(c1)N=C(N1CCCCC1)c1ccccc1S2(=O)=O [drawing 1798]	77	217	–	–
CCCCNC(=O)c1ccc2c(c1)N=C(c1ccc(Cl)cc1)c1ccccc1S2 [drawing 1812]	–	–	49	–
CCN(CCNC(=O)c1ccc2c(c1)N=C(c1cccc(Cl)c1)c1ccccc1S2)c1ccccc1 [drawing 1751]	157	368	–	–
O=C(NCCCC(F)(F)F)c1ccc2c(c1)N=C(c1ccccn1)c1ccccc1S2 [drawing 1832]	–	–	28	–
CCCCNC(=O)c1ccc2c(c1)N=C(c1ccc(Cl)cc1)c1ccccc1S2 [drawing 536]	–	–	–	Feeding ID50 [4]: 2.4 mg/kg
CCCCNC(=O)c1ccc2c(c1)N=C(c1ccc(Cl)cc1)c1ccccc1[S+]2[O-] (stereo not shown) [drawing 1840]	–	–	52	–
CC(C)CNC(=O)c1ccc2c(c1)N=C(c1ccc(Br)cc1)c1ccccc1S2 [drawing 1791]	19	115	–	–
CCCCNC(=O)c1ccc2c(c1)N=C(c1ccc(Cl)cn1)c1cc(F)ccc1S2 [drawing 1841]	–	–	52	–
CCCCNC(=O)c1ccc2c(c1)N=C(c1ccc(F)cn1)c1ccccc1S2 [drawing 545]	–	–	–	Feeding ID50 [4]: 6 mg/kg
CC(C)CNC(=O)c1ccc2c(c1)N=C(c1ccc(Cl)s1)c1ccccc1S2 [drawing 1813]	–	–	26	–
O=C(NCCc1ccccc1)c1ccc2c(c1)N=C(c1cccc(Cl)c1)c1ccccc1S2 [drawing 1763]	53	110	–	–
CC(C)CNC(=O)c1ccc2c(c1)N=C(c1ccc(Cl)s1)c1ccccc1S2 [drawing 544]	–	–	–	Feeding ID50 [4]: 7.9 mg/kg
O=C(NCCCC(F)(F)F)c1ccc2c(c1)N=C(c1ccc(Cl)s1)c1ccccc1S2 [drawing 1810]	–	–	14	–
CCCCNC(=O)c1ccc2c(c1)N=C(c1ccc(Cl)cc1)c1ccc(F)cc1S2 [drawing 1821]	–	–	34	–
COc1cccc(C2=Nc3cc(C(=O)NC4CCC(F)(F)CC4)ccc3Sc3ccccc32)n1 [drawing 1673]	25	158	–	–
CCCCNC(=O)c1ccc2c(c1)N=C(c1ccc(Br)cn1)c1ccccc1S2 [drawing 1820]	–	–	78	–
CC(C)CCNC(=O)c1ccc2c(c1)N=C(c1ccccn1)c1ccccc1S2 [drawing 1842]	–	–	39	–

SMILES	microsomal CLint at 1 μM (in vitro [1]) [µL/min/mg]	microsomal CLint at 1 μM (in vitro [2]) [µL/min/mg]	inhibition at 1 µM (hERG) [%]	further results
O=C(NN1CCCCCC1)c1ccc2c(c1)N=C(c1cccc(F)c1)c1ccccc1S2 [drawing 1693]	84	241	–	microsomal CLint at 1 μM (in vitro [3]): 160 µL/min/mg
Cc1ccc(CNC(=O)c2ccc3c(c2)N=C(c2ccc(Cl)s2)c2ccccc2S3)o1 [drawing 1836]	–	–	13	–
O=C(NCCCc1ccccc1)c1ccc2c(c1)N=C(c1ccc(Cl)cc1)c1ccccc1S2 [drawing 1680]	73	131	–	–
CC(C)CNC(=O)c1ccc2c(c1)N=C(c1ccc(Cl)cc1)c1ccc(F)cc1S2 [drawing 1811]	–	–	58	–
O=C(NCc1ccco1)c1ccc2c(c1)N=C(c1cccc(F)c1)c1ccccc1S2 [drawing 1754]	68	140	–	microsomal CLint at 1 μM (in vitro [3]): 197 µL/min/mg
CC(C)CNC(=O)c1ccc2c(c1)N=C(c1cccc(Cl)c1)c1ccccc1S2 [drawing 1819]	–	–	93	–
O=C(NN1CCCCC1)c1ccc2c(c1)N=C(c1ccc(Cl)cc1)c1ccccc1S2 [drawing 1831]	–	–	92	–
CCCCNC(=O)c1ccc2c(c1)N=C(c1ccc(Cl)s1)c1ccccc1S2 [drawing 1824]	–	–	14	–
O=C(NN1CCCCC1)c1ccc2c(c1)N=C(C1CCCCC1)c1ccccc1S2 [drawing 1828]	–	–	29	–
CC(C)CCNC(=O)c1ccc2c(c1)N=C(c1cccc(Cl)c1)c1ccccc1S2 [drawing 538]	–	–	–	Feeding ID50 [4]: 5.3 mg/kg
O=C(NCCCC(F)(F)F)c1ccc2c(c1)N=C(c1cccc(F)c1)c1ccccc1S2 [drawing 1817]	–	–	45	–
O=C(NN1CCCCC1)c1ccc2c(c1)N=C(c1ccc(Cl)s1)c1ccccc1S2 [drawing 1660]	32	148	–	microsomal CLint at 1 μM (in vitro [3]): 227 µL/min/mg
O=C(NCc1ccc(F)cc1)c1ccc2c(c1)N=C(c1ccc(Cl)cc1)c1ccccc1S2 [drawing 539]	–	–	–	Feeding ID50 [4]: 8 mg/kg
CC(C)CNC(=O)c1ccc2c(c1)N=C(c1ccc(Cl)cc1F)c1ccccc1S2 [drawing 542]	–	–	–	Feeding ID50 [4]: 5.8 mg/kg
O=C(NCc1cccnc1)c1ccc2c(c1)N=C(c1ccc(Cl)c(Cl)c1)c1ccccc1S2 [drawing 541]	–	–	–	Feeding ID50 [4]: 14 mg/kg
CC(C)CNC(=O)c1ccc2c(c1)N=C(c1ccc(Cl)cc1F)c1ccccc1S2 [drawing 1835]	–	–	41	–
CCCNC(=O)c1ccc2c(c1)N=C(c1ccc(Cl)cc1)c1ccccc1S2 [drawing 1826]	–	–	55	–
O=C(NCCCC(F)(F)F)c1ccc2c(c1)N=C(c1ccc(Cl)cc1F)c1ccccc1S2 [drawing 1809]	–	–	24	–
CC(C)CCNC(=O)c1ccc2c(c1)N=C(c1ccc(F)cc1)c1ccccc1S2 [drawing 1771]	52	214	–	–
O=C(NC1CCCCC1)c1ccc2c(c1)N=C(c1ccc(F)cc1)c1ccccc1S2 [drawing 1814]	–	–	45	–

SMILES	microsomal CLint at 1 μM (in vitro [1]) [µL/min/mg]	microsomal CLint at 1 μM (in vitro [2]) [µL/min/mg]	inhibition at 1 µM (hERG) [%]	further results
O=C(NC1CCCCC1)c1ccc2c(c1)N=C(c1cccc(Cl)c1)c1ccccc1S2 [drawing 1834]	–	–	44	–
COc1cccc(C2=Nc3cc(C(=O)NCCCC(F)(F)F)ccc3Sc3ccccc32)n1 [drawing 1823]	–	–	35	–
O=C(NN1CCCCCC1)c1ccc2c(c1)N=C(c1ccc(Cl)s1)c1ccccc1S2 [drawing 1816]	–	–	30	–
O=C(NN1CCCCC1)c1ccc2c(c1)N=C(C1CCCCC1)c1ccccc1S2 [drawing 537]	–	–	–	Feeding ID50 [4]: 12 mg/kg
CC(C)CNC(=O)c1ccc2c(c1)N=C(c1ccc(Cl)c(Cl)c1)c1ccccc1S2 [drawing 540]	–	–	–	Feeding ID50 [4]: 8.4 mg/kg
CC(C)CCNC(=O)c1ccc2c(c1)N=C(c1cccc(Cl)c1)c1ccccc1S2 [drawing 1822]	–	–	59	–
CC(C)CNC(=O)c1ccc2c(c1)N=C(c1ccc(Cl)cc1)c1ccccc1S2 [drawing 1759]	12	56	–	microsomal CLint at 1 μM (in vitro [3]): 83 µL/min/mg
O=C(NC1CCC(F)(F)CC1)c1ccc2c(c1)N=C(c1cccc(Cl)c1)c1ccccc1S2 [drawing 1715]	3	81	–	–
CC(CNC(=O)c1ccc2c(c1)N=C(c1ccc(F)cc1)c1ccccc1S2)c1ccccc1 (stereo not shown) [drawing 1797]	108	532	–	–
CC(C)CNC(=O)c1ccc2c(c1)N=C(c1ccc(Cl)c(Cl)c1)c1ccccc1S2 [drawing 1833]	–	–	16	–
O=C(NN1CCCCC1)c1ccc2c(c1)N=C(c1ccc(Cl)cc1)c1ccccc1S2 [drawing 543]	–	–	–	Feeding ID50 [4]: 2.4 mg/kg
O=C(NCc1ccc(F)cc1)c1ccc2c(c1)N=C(c1cccc(Cl)c1)c1ccccc1S2 [drawing 1662]	27	76	–	–
O=C(NCc1ccccc1Cl)c1ccc2c(c1)N=C(c1ccc(Cl)cc1)c1ccccc1S2 [drawing 1782]	17	33	–	–
CCCCNC(=O)c1ccc2c(c1)N=C(c1ccc(Cl)cn1)c1ccccc1S2 [drawing 1839]	–	–	67	–
O=C(NCc1cccnc1)c1ccc2c(c1)N=C(c1ccc(Cl)c(Cl)c1)c1ccccc1S2 [drawing 1830]	–	–	40	–
O=C(NN1CCCCCC1)c1ccc2c(c1)N=C(c1cccc(Cl)c1)c1ccccc1S2 [drawing 1825]	–	–	97	–
O=C(NCCCC(F)(F)F)c1ccc2c(c1)N=C(c1ccsc1)c1ccccc1S2 [drawing 1837]	–	–	28	–
O=C(NCc1ccccc1Cl)c1ccc2c(c1)N=C(c1ccccc1F)c1ccccc1S2 [drawing 1794]	59	181	–	–
O=C(NN1CCCCCC1)c1ccc2c(c1)N=C(c1ccc(Cl)s1)c1ccccc1S2 [drawing 1208]	–	–	–	Binding rat Inh % (native CB1 receptors): 93%; Ki (native CB1 receptors): 5.01 nM; Binding Human Inh % (human CB1 receptor): 96%; Ki (human CB1 receptor): 1.58 nM
O=C(NCCCC(F)(F)F)c1ccc2c(c1)N=C(c1ccc(Cl)s1)c1ccccc1S2 [drawing 1176]	–	–	–	Binding rat Inh % (native CB1 receptors): 91%; Ki (native CB1 receptors): 0.501 nM; Binding Human Inh % (human CB1 receptor): 87%; Ki (human CB1 receptor): 0.158 nM

From patent US20080090805A1, “CB-1 MODULATING COMPOUNDS AND THEIR USE” (ACADIA PHARMACEUTICALS INC., priority 2005, published 2008)
